Calls of active or inactive are those of the source. How the calls were made is not given here.
System: CCRIS mutagenicity, Ames/micronucleus/aberration tests
Assay: CCRIS mutagenicity studies
[1] = Test System: AMES SALMONELLA TYPHIMURIUM, Strain/Indicator: TA98, Metabolic Activation: NONE, Method: PREINCUBATION
[2] = Test System: AMES SALMONELLA TYPHIMURIUM, Strain/Indicator: TA100, Metabolic Activation: RAT, LIVER, S-9, AROCLOR 1254, Method: STANDARD PLATE
[3] = Test System: AMES SALMONELLA TYPHIMURIUM, Strain/Indicator: TA100, Metabolic Activation: NONE, Method: STANDARD PLATE

## CC(C)=O
End Point: IN VITRO CHROMOSOMAL ABERRATIONS, Test System: CHO-LB CELLS, Metabolic Activation: NONE
  mutagenic call: inactive; negative
End Point: IN VITRO CHROMOSOMAL ABERRATIONS, Test System: CHO-LB CELLS, Metabolic Activation: RAT, LIVER, S-9, AROCLOR 1254
  mutagenic call: inactive; negative
Test System: AMES SALMONELLA TYPHIMURIUM, Strain/Indicator: TA97, Metabolic Activation: HAMSTER, LIVER, S-9, AROCLOR 1254 (10 OR 30%), Method: PREINCUBATION
  mutagenic call: inactive; negative
Test System: AMES SALMONELLA TYPHIMURIUM, Strain/Indicator: TA97, Metabolic Activation: NONE, Method: PREINCUBATION
  mutagenic call: inactive; negative
Test System: AMES SALMONELLA TYPHIMURIUM, Strain/Indicator: TA97, Metabolic Activation: RAT, LIVER, S-9, AROCLOR 1254 (10 OR 30%), Method: PREINCUBATION
  mutagenic call: inactive; negative
Test System: AMES SALMONELLA TYPHIMURIUM, Strain/Indicator: TA97, Metabolic Activation: RAT, LIVER, S-9, AROCLOR 1254, Method: PREINCUBATION
  mutagenic call: inactive; negative
Test System: AMES SALMONELLA TYPHIMURIUM, Strain/Indicator: TA98, Metabolic Activation: HAMSTER, LIVER, S-9, AROCLOR 1254 (10 OR 30%), Method: PREINCUBATION
  mutagenic call: inactive; negative
[1]
  mutagenic call: inactive; negative
Test System: AMES SALMONELLA TYPHIMURIUM, Strain/Indicator: TA98, Metabolic Activation: RAT, LIVER, S-9, AROCLOR 1254 (10 OR 30%), Method: PREINCUBATION
  mutagenic call: inactive; negative
Test System: AMES SALMONELLA TYPHIMURIUM, Strain/Indicator: TA100, Metabolic Activation: HAMSTER, LIVER, S-9, AROCLOR 1254 (10 OR 30%), Method: PREINCUBATION
  mutagenic call: inactive; negative
Test System: AMES SALMONELLA TYPHIMURIUM, Strain/Indicator: TA100, Metabolic Activation: NONE, Method: PREINCUBATION
  mutagenic call: inactive; negative
Test System: AMES SALMONELLA TYPHIMURIUM, Strain/Indicator: TA100, Metabolic Activation: RAT, LIVER, S-9, AROCLOR 1254 (10 OR 30%), Method: PREINCUBATION
  mutagenic call: inactive; negative
Test System: AMES SALMONELLA TYPHIMURIUM, Strain/Indicator: TA102, Metabolic Activation: NONE, Method: PREINCUBATION
  mutagenic call: inactive; negative
Test System: AMES SALMONELLA TYPHIMURIUM, Strain/Indicator: TA102, Metabolic Activation: RAT, LIVER, S-9, AROCLOR 1254, Method: PREINCUBATION
  mutagenic call: inactive; negative
Test System: AMES SALMONELLA TYPHIMURIUM, Strain/Indicator: TA1535, Metabolic Activation: HAMSTER, LIVER, S-9, AROCLOR 1254 (10 OR 30%), Method: PREINCUBATION
  mutagenic call: inactive; negative
Test System: AMES SALMONELLA TYPHIMURIUM, Strain/Indicator: TA1535, Metabolic Activation: NONE, Method: PREINCUBATION
  mutagenic call: inactive; negative
Test System: AMES SALMONELLA TYPHIMURIUM, Strain/Indicator: TA1535, Metabolic Activation: RAT, LIVER, S-9, AROCLOR 1254 (10 OR 30%), Method: PREINCUBATION
  mutagenic call: inactive; negative
Test System: AMES SALMONELLA TYPHIMURIUM, Strain/Indicator: TA1537, Metabolic Activation: HAMSTER, LIVER, S-9, AROCLOR 1254 (30%), Method: PREINCUBATION
  mutagenic call: inactive; negative
Test System: AMES SALMONELLA TYPHIMURIUM, Strain/Indicator: TA1537, Metabolic Activation: NONE, Method: PREINCUBATION
  mutagenic call: inactive; negative
Test System: AMES SALMONELLA TYPHIMURIUM, Strain/Indicator: TA1537, Metabolic Activation: RAT, LIVER, S-9, AROCLOR 1254 (30%), Method: PREINCUBATION
  mutagenic call: inactive; negative

## COc1cc(O)cc2c1cc([N+](=O)[O-])c1c(C(=O)O)cc3c(c12)OCO3
Test System: AMES SALMONELLA TYPHIMURIUM, Strain/Indicator: TM677/8-AZAGUANINE, Metabolic Activation: NONE, Method: SUSPENSION/PLATE
  mutagenic call: inactive; negative

## O[C@@H]1C2=c3c(cc4cccc5ccc(c3c54)[C@H]1O)-c1ccccc12
[2]
  mutagenic call: inactive; negative

## COc1ccc2c(c1)-c1nccc3cc(OC)c(OC)c(c13)C2=O
Test System: AMES SALMONELLA TYPHIMURIUM, Strain/Indicator: TA98, Metabolic Activation: RAT, LIVER, S-9, PHENOBARBITAL AND BETA-NAPHTHOFLAVONE, Method: PREINCUBATION
  mutagenic call: active; positive

## CC(=O)[O-].CC(=O)[O-].[Cd+2]
End Point: IN VITRO MICRONUCLEUS, Test System: CHL/IU CELLS, Metabolic Activation: NONE
  mutagenic call: active; positive
Test System: CHINESE HAMSTER OVARY, Strain/Indicator: CHO-K1 (HPRT)/6-THIOGUANINE, Metabolic Activation: NONE
  mutagenic call: active; positive

## O=[N+]([O-])c1ccc(Nc2ccc(Cl)cc2)cc1
[1]
  mutagenic call: inactive; negative
Test System: AMES SALMONELLA TYPHIMURIUM, Strain/Indicator: TA98, Metabolic Activation: RAT, LIVER, S-9, AROCLOR 1254, Method: PREINCUBATION
  mutagenic call: active; positive

## CC1(C(=O)Nc2ccccc2)CO1 (centres undefined)
Test System: AMES SALMONELLA TYPHIMURIUM, Strain/Indicator: TA100, Metabolic Activation: MOUSE, LIVER, S-9, AROCLOR 1254, Method: STANDARD PLATE
  mutagenic call: active; positive
[3]
  mutagenic call: active; positive

## Nc1cc(C(F)(F)F)ccc1Cl
Test System: AMES SALMONELLA TYPHIMURIUM, Strain/Indicator: TA98, Metabolic Activation: NONE, Method: STANDARD PLATE
  mutagenic call: inactive; negative
Test System: AMES SALMONELLA TYPHIMURIUM, Strain/Indicator: TA98, Metabolic Activation: RAT, LIVER, S-9, AROCLOR 1254, Method: STANDARD PLATE
  mutagenic call: inactive; negative
[3]
  mutagenic call: inactive; negative
[2]
  mutagenic call: inactive; negative
Test System: AMES SALMONELLA TYPHIMURIUM, Strain/Indicator: TA1535, Metabolic Activation: NONE, Method: STANDARD PLATE
  mutagenic call: inactive; negative
Test System: AMES SALMONELLA TYPHIMURIUM, Strain/Indicator: TA1535, Metabolic Activation: RAT, LIVER, S-9, AROCLOR 1254, Method: STANDARD PLATE
  mutagenic call: inactive; negative
Test System: AMES SALMONELLA TYPHIMURIUM, Strain/Indicator: TA1537, Metabolic Activation: NONE, Method: STANDARD PLATE
  mutagenic call: inactive; negative
Test System: AMES SALMONELLA TYPHIMURIUM, Strain/Indicator: TA1537, Metabolic Activation: RAT, LIVER, S-9, AROCLOR 1254, Method: STANDARD PLATE
  mutagenic call: inactive; negative
Test System: AMES SALMONELLA TYPHIMURIUM, Strain/Indicator: TA1538, Metabolic Activation: NONE, Method: STANDARD PLATE
  mutagenic call: inactive; negative
Test System: AMES SALMONELLA TYPHIMURIUM, Strain/Indicator: TA1538, Metabolic Activation: RAT, LIVER, S-9, AROCLOR 1254, Method: STANDARD PLATE
  mutagenic call: inactive; negative
